Assay results as given in US20040167170A1, “Methods of preventing breast cancer” (priority 1996, published 2004).

Assays:
Format in all cases: in vivo, human
[1] = system: breast cancer in postmenopausal women; assay: Phase III double-blind placebo-controlled raloxifene trials, all placebo-controlled studies combined: incidence of breast cancer; conditions: for Relative Risk (Raloxifene to Placebo) of breast cancer / Raloxifene Cases n/N (%): all raloxifene doses pooled; for Raloxifene Cases n/N (%): N estimated
Text: (§1) As support for the utility of the current invention, the interim safety results of Phase III clinical trials with raloxifene are presented, below.
(§2) The majority of cases of breast carcinoma have occurred in the large, ongoing osteoporosis treatment study of 7704 postmenopausal women with established osteoporosis. However additional cases have been reported in smaller studies of postmenopausal women at risk for osteoporosis. The studies reported herein are double-blind and placebo-controlled; most have durations of approximately three years and were designed to determine the efficacy of raloxifene to prevent or treat osteoporosis in postmenopausal women. In addition, the studies provide information on the status of cardiovascular health and other major medical conditions (including the incidence of breast carcinoma). Patients were randomly assigned to receive either placebo, 30 mg, 60 mg, 120 mg or 150 mg of drug per day, orally. All patients and investigators are blinded to study drug assignment (double-blind design). All patients in all groups received daily calcium supplements of approximately 500 mg/day. In addition, patients in the large, 7704-patient treatment study received Vitamin D supplements, 400-600 IU/day.
(§3) Subjects selected for these studies are postmenopausal women (at least 2 years from the time of the last menstrual period), ages range from approximately forty-five to eighty years.
(§4) Typical exclusion criteria from participation in these studies included: l)the presence of serious systemic disease, 2)acute or chronic liver disease, 3)substantially impaired kidney function, 4)subjects who, in the opinion of the investigator, have poor medical or psychiatric risk factors for inclusion in a clinical trial, e.g., drug or alcohol abuse, etc. 5)subjects with any history of cancer within five years of entry into the study, with the exception of superficial lesions, e.g., basal cell carcinoma of the skin 6)the presence of abnormal uterine bleeding. Most important of the exclusion criteria was the exclusion of women with present or past personal history of breast cancer or other estrogen-dependent neoplasia. These exclusion criteria generate a population of subjects which reflects the general population in regard to the risk of developing breast carcinoma, or in other words, those persons at no particular increased risk of developing breast cancer.
(§5) Potential subjects were screened prior to enrollment into the study. Subjects were required to reveal their medical histories and current medical conditions. All potential patients were required either to have a baseline mammogram or ultrasound evaluation of the breast, or to have had one of these procedures in the 12-month period preceding study entry. In most studies, a two-year follow-up mammogram is required; however, annual mammograms are recommended. All subjects with diagnosed and reported carcinomas of the breast were required to discontinue immediately from study participation, and were referred by the site investigator for appropriate oncologic evaluation and care.
The overall ratio of treatment assignments for randomized patients (raloxifene to placebo) is approximately 2:1.
(§6) The results shown in Tables 1-4 are for subjects with histopathologic diagnoses of carcinoma of the breast. The data include results from optional one year mammograms, as well as the required baseline and two year follow-up mammograms. Once a diagnosis of breast cancer was made, these subjects were discontinued from the study and their status decoded to reveal the therapy (arm) to which they been assigned (i.e. what study drug they had received).
(§7) For the studies reported in this invention, the number of patients randomly assigned to receive placebo is approximately 3195. The number of patients randomly assigned to receive raloxifene (all doses combined) is approximately 6681. […] Table 1 presents the results for all placebo-controlled studies, with data for all doses of raloxifene pooled. […]

[2] = system: postmenopausal women; assay: Integrated safety analysis of Phase III clinical trials of raloxifene for prevention or treatment of osteoporosis; conditions: all doses integrated; more than 12,850 patient-years of exposure; nearly 3 years of clinical experience
Text: Because the goal of disease prevention is to protect women from the carcinogenic event (or the occurrence of precancerous lesions) and the subsequent promotion or progression to invasive disease (cancer), prolonged use of a preventive therapeutic agent is necessary (Kelloff et.al. Approaches to the Development and Marketing Approval of Drugs that Prevent Cancer, Cancer Epidemiology, Biomarkers & Prevention, vol 4, pp.1-10, 1995). […] Raloxifene has been studied in more than 12,000 subjects. Extensive integrated data from Phase III clinical trials of raloxifene for the prevention or treatment of osteoporosis in postmenopausal women, has been analyzed for safety. When all doses of raloxifene are integrated, this analysis has included more than 12,850 patient-years of exposure to raloxifene.

[3] = system: breast cancer in postmenopausal women with established osteoporosis; assay: Large (7704-patient) osteoporosis treatment study of postmenopausal women with established osteoporosis: incidence of breast cancer; conditions: for Relative Risk (Raloxifene to Placebo) of breast cancer / Raloxifene Cases n/N (%): 60 and 120 mg/day; for Raloxifene Cases n/N (%): N estimated
Text: as §1, §2, §3, §4, §5, §6, §7

[4] = 1-Year Follow-up mammograms (6-18 months)
[5] = 2-year Follow-up mammograms (18-30 months)
[6] = Baseline mammograms (1-6 months)
[7] = diagnosis at least 1 month after therapy assignment
[8] = diagnosis at least 12 months after therapy assignment
[9] = vs placebo, cases at least 12 months after randomization
[10] = vs placebo, diagnosed at least one month after random assignment

## O=C(c1ccc(OCCN2CCCCC2)cc1)c1c(-c2ccc(O)cc2)sc2cc(O)ccc12 [Raloxifene]
[1]; [4]
  Raloxifene Cases: 7
  Relative Risk of breast cancer: 0.56
[1]; [5]
  Raloxifene Cases: 5
  Relative Risk of breast cancer: 0.15
[1]; [6]
  Raloxifene Cases: 5
  Relative Risk of breast cancer: 1.20
[1]; [7]
  Relative Risk (Raloxifene to Placebo) of breast cancer: 0.36
  Raloxifene Cases n/N (%): 18/6681
[1]; [8]
  Relative Risk (Raloxifene to Placebo) of breast cancer: 0.23
  Raloxifene Cases n/N (%): 10/6681
[1]; placebo-controlled trials of at least 6 months duration, more than 1-month of treatment, raloxifene to placebo approximately 2:1
  breast cancer cases reported in the raloxifene treatment groups: 18 cases
[1]; [9]
  decrease in the incidence of breast cancer: 77%
[1]; [10]
  decrease in the rate of breast cancer: 64%
[2]
  tolerability / safety: extremely well-tolerated
[3]; [4]
  Raloxifene Cases: 4
  Relative Risk of breast cancer: 0.33
[3]; [5]
  Raloxifene Cases: 3
  Relative Risk of breast cancer: 0.12
[3]; [6]
  Raloxifene Cases: 5
  Relative Risk of breast cancer: 1.25
[3]; [7]
  Relative Risk (Raloxifene to Placebo) of breast cancer: 0.29
  Raloxifene Cases n/N (%): 12/5317
[3]; [8]
  Relative Risk (Raloxifene to Placebo) of breast cancer: 0.14
  Raloxifene Cases n/N (%): 5/5317
[3]; [9]
  decrease in the incidence of breast carcinoma: 86%
[3]; [10]
  decrease in the rate of breast cancer: 71%
